# Experimental data taken from patent US11414424B2, “Cardiac sarcomere inhibitors” (Cytokinetics, Inc., priority 2018, dated 2022).
# System: bovine cardiac myofibrils
# Test: Myofibril assay: PK/LDH-coupled steady-state ATPase activity of skinned bovine cardiac myofibrils
# Format: biochemical
# Details: Ca2+ activating to 75% of maximal rate
# Outline: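 Steady-state ATPase of detergent-skinned bovine left-ventricular myofibrils (1 mg/mL), PK/LDH-coupled NADH read at 340 nm, in PIPES/MgCl2 buffer pH 6.8 with 50 μM ATP, 0.6 mM EGTA and CaCl2 set for 50% or 75% activation. Inhibition of activity measured.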
row,SMILES,CDMF75 IC15
1,"O=C1C(CC2COC2)N(Cc2ccc(C(F)(F)F)cc2)C(=O)CN1c1ncc(Cl)cc1F (stereo not shown) [Compound 639, 1-(5-chloro-3-fluoropyridin-2-yl)-3-(oxetan-3-ylmethyl)-4-(4-(trifluoromethyl)-benzyl)piperazine-2,5-dione]",1.4 µM
2,"O=C1C(CC2COC2)N(Cc2ccc(Cl)cc2)C(=O)CN1c1ncc(Cl)cc1F (stereo not shown) [Compound 640, 1-(5-chloro-3-fluoropyridin-2-yl)-4-(4-chlorobenzyl)-3-(oxetan-3-ylmethyl)-piperazine-2,5-dione]",1.6 µM
3,"CNC(=O)N1CC(C2C(=O)N(c3ncc(Cl)cc3F)CC(=O)N2Cc2ccc(C(F)(F)F)cc2)C1 (stereo not shown) [Compound 641, 3-(4-(5-chloro-3-fluoro-pyridin-2-yl)-3,6-dioxo-1-(4-(trifluoromethyl)-benzyl)piperazin-2-yl)-N-methylazetidine-1-carboxamide]",12.2 µM
4,"CNC(=O)N1CC(C2C(=O)N(c3ncc(Cl)cc3F)CC(=O)N2Cc2ccc(Cl)cc2)C1 (stereo not shown) [Compound 642, 3-(4-(5-chloro-3-fluoro-pyridin-2-yl)-1-(4-chloro-benzyl)-3,6-dioxopiperin-2-yl)-N-methylazetidine-1-carboxamide]",10.9 µM
5,"CC(=O)N1CC(C2C(=O)N(c3ncc(Cl)cc3F)CC(=O)N2Cc2ccc(C(F)(F)F)cc2)C1 (stereo not shown) [Compound 643, 3-(1-acetylazetidin-3-yl)-1-(5-chloro-3-fluoropyridin-2-yl)-4-(4-(trifluoro-methyl)benzyl)piperazine-2,5-dione]",5.8 µM
6,"CC(=O)N1CC(C2C(=O)N(c3ncc(Cl)cc3F)CC(=O)N2Cc2ccc(Cl)cc2)C1 (stereo not shown) [Compound 644, 3-(1-acetylazetidin-3-yl)-1-(5-chloro-3-fluoropyridin-2-yl)-4-(4-chlorobenzyl)-piperazine-2,5-dione]",6.8 µM
7,"Cc1cc(Cl)cnc1N1CC(=O)N(Cc2ccc(C(F)(F)F)cc2)C(C2COC2)C1=O (stereo not shown) [Compound 645, 1-(5-chloro-3-methylpyridin-2-yl)-3-(oxetan-3-yl)-4-(4-(trifluoromethyl)benzyl)-piperazine-2,5-dione]",5.8 µM
8,"O=C1C(C2COC2)N(Cc2ccc(F)cc2)C(=O)CN1c1ncc(Cl)cc1F (stereo not shown) [Compound 646, 1-(5-chloro-3-fluoropyridin-2-yl)-4-(4-fluorobenzyl)-3-(oxetan-3-yl)piperazine-2,5-dione]",3.3 µM
9,"O=C1C(C2COC2)N(Cc2ccc(F)c(F)c2)C(=O)CN1c1ncc(Cl)cc1F (stereo not shown) [Compound 647, 1-(5-chloro-3-fluoropyridin-2-yl)-4-(3,4-difluorobenzyl)-3-(oxetan-3-yl)piperazine-2,5-dione]",2.1 µM
10,"O=C1C(C2COC2)N(Cc2ccc(Cl)c(F)c2)C(=O)CN1c1ncc(Cl)cc1F (stereo not shown) [Compound 648, 4-(4-chloro-3-fluorobenzyl)-1-(5-chloro-3-fluoropyridin-2-yl)-3-(oxetan-3-yl)-piperazine-2,5-dione]",2.0 µM
11,"O=C1C(C2COC2)N(Cc2ccc(C(F)(F)F)c(F)c2)C(=O)CN1c1ncc(Cl)cc1F (stereo not shown) [Compound 649, 1-(5-chloro-3-fluoropyridin-2-yl)-4-(3-fluoro-4-(trifluoromethyl)benzyl)-3-(oxetan-3-yl)piperazine-2,5-dione]",2.9 µM
12,"O=C1C(C2COC2)N(Cc2ccc(C(F)F)cc2)C(=O)CN1c1ncc(Cl)cc1F (stereo not shown) [Compound 650, 1-(5-chloro-3-fluoropyridin-2-yl)-4-(4-(difluoro-methyl)benzyl)-3-(oxetan-3-yl)piperazine-2,5-dione]",2.5 µM
13,"Cc1cc(Cl)cnc1N1CC(=O)N(Cc2ccc(C(F)(F)F)cc2)C(CC2COC2)C1=O (stereo not shown) [Compound 651, 1-(5-chloro-3-methylpyridin-2-yl)-3-(oxetan-3-ylmethyl)-4-(4-(trifluoromethyl)-benzyl)piperazine-2,5-dione]",7.3 µM
